From PubChem BioAssay AID330 (DTP/NCI, 2004)
Values joined by “and” are separate entries in the source; they are usually repeats but may differ in a detail not shown here. Identical values can stand only once. Inconclusive results and toxic doses are left out.

Tested on: P388 leukemia ip, CD2F1 mice, survival T/C
Experiment: NCI In Vivo Anticancer Drug Screen. Data for tumor model P388 Leukemia (intraperitoneal) in CD2F1 (CDF1) mice
Settings: endpoint: median survival time, higher = longer survival
Method in brief: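 Mice carrying the transplanted tumor received test compound or vehicle. Survival was recorded in each group, and the value is the treated-group measurement divided by that of the vehicle-treated control group.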

[1] = dose: 25.0 mg/kg/injection, schedule: Q01DX005 (ip), vehicle: saline with Tween-80
[2] = dose: 50.0 mg/kg/injection, schedule: Q01DX005 (ip), vehicle: saline with Tween-80
[3] = dose: 100.0 mg/kg/injection, schedule: Q01DX005 (ip), vehicle: saline with Tween-80
[4] = dose: 50.0 mg/kg/injection, schedule: Q01DX005 (ip), vehicle: Klucel (hydroxypropylcellulose) (HPC)
[5] = dose: 100.0 mg/kg/injection, schedule: Q01DX005 (ip), vehicle: Klucel (hydroxypropylcellulose) (HPC)
[6] = dose: 200.0 mg/kg/injection, schedule: Q01DX005 (ip), vehicle: Klucel (hydroxypropylcellulose) (HPC)
[7] = dose: 60.0 mg/kg/injection, schedule: Q01DX005 (ip), vehicle: saline with Tween-80
[8] = dose: 120.0 mg/kg/injection, schedule: Q01DX005 (ip), vehicle: saline with Tween-80
[9] = dose: 240.0 mg/kg/injection, schedule: Q01DX005 (ip), vehicle: saline with Tween-80
[10] = dose: 50.0 mg/kg/injection, schedule: Q01DX005 (ip), vehicle: saline
[11] = dose: 200.0 mg/kg/injection, schedule: Q01DX005 (ip), vehicle: saline with Tween-80
[12] = dose: 100.0 mg/kg/injection, schedule: Q01DX001 (ip), vehicle: saline
[13] = dose: 200.0 mg/kg/injection, schedule: Q01DX001 (ip), vehicle: saline
[14] = dose: 400.0 mg/kg/injection, schedule: Q01DX001 (ip), vehicle: saline
[15] = dose: 60.0 mg/kg/injection, schedule: Q01DX005 (ip), vehicle: Klucel (hydroxypropylcellulose) (HPC)
[16] = dose: 120.0 mg/kg/injection, schedule: Q01DX005 (ip), vehicle: Klucel (hydroxypropylcellulose) (HPC)
[17] = dose: 240.0 mg/kg/injection, schedule: Q01DX005 (ip), vehicle: Klucel (hydroxypropylcellulose) (HPC)

In the case of `COc1cc2oc3c(C)c(=O)cc4oc(-c5ccccc5)cc(c2c2c1CCC(c1ccccc1)O2)c43` (configuration not stated), the T/C (dose: 6.25 mg/kg/injection, schedule: Q01DX005 (ip), vehicle: saline with Tween-80) is reported as 106 % of control, the T/C (dose: 7.0 mg/kg/injection, schedule: Q01DX005 (ip), vehicle: Klucel (hydroxypropylcellulose) (HPC)) is reported as 116 % of control and 211 % of control and the T/C (dose: 12.5 mg/kg/injection, schedule: Q01DX005 (ip), vehicle: saline with Tween-80) is reported as 106 % of control. For the same compound, the T/C (dose: 14.0 mg/kg/injection, schedule: Q01DX005 (ip), vehicle: Klucel (hydroxypropylcellulose) (HPC)) was 98 % of control, the T/C [1] was 121 % of control and the T/C [2] was 124 % of control. The T/C [3] was 114 % of control.

`COc1ccc2c(c1)CCC1C2=CC(=O)/C1=C\[O-].COc1ccc2c(c1)CCC1C2=CC(=O)/C1=C\[O-].[Cu+2]` (configuration not stated) was tested, and the T/C (dose: 33.0 mg/kg/injection, schedule: Q04DX003 (ip), vehicle: saline with Tween-80) was 109 % of control, the T/C (dose: 50.0 mg/kg/injection, schedule: Q04DX003 (ip), vehicle: saline with Tween-80) was 100 % of control and 90 % of control and the T/C (dose: 75.0 mg/kg/injection, schedule: Q04DX003 (ip), vehicle: saline with Tween-80) was 100 % of control.

With `CN=C1c2ccccc2C(=O)c2c1c(O)n(C)c2O` the T/C [4] was 97 % of control, the T/C [5] was 97 % of control and the T/C [6] was 106 % of control.

In the case of `Cc1[nH]n(-c2ccc(S(=O)(=O)O)cc2)c(=O)c1N=Nc1ccccc1`, the T/C [7] is reported as 96 % of control, the T/C [8] is reported as 100 % of control and the T/C [9] is reported as 90 % of control.

In the case of `O=C(O)[C@@H](NC(=O)C(Cl)(Cl)Cl)[C@@H]1CC(Br)=NO1`, the T/C (dose: 15.0 mg/kg/injection, schedule: Q01DX005 (ip), vehicle: distilled water + Tween-80) is reported as 107 % of control and 118 % of control and 122 % of control, the T/C (dose: 30.0 mg/kg/injection, schedule: Q01DX005 (ip), vehicle: distilled water + Tween-80) is reported as 107 % of control and the T/C (dose: 120.0 mg/kg/injection, schedule: Q01DX005 (ip), vehicle: distilled water + Tween-80) is reported as 114 % of control and 98 % of control.

In the case of `NC1(c2ccccc2)CC2CCC1C2` (configuration not stated), the T/C (dose: 12.5 mg/kg/injection, schedule: Q01DX001 (ip), vehicle: Klucel (hydroxypropylcellulose) (HPC)) is reported as 100 % of control, the T/C (dose: 25.0 mg/kg/injection, schedule: Q01DX001 (ip), vehicle: Klucel (hydroxypropylcellulose) (HPC)) is reported as 100 % of control and the T/C (dose: 50.0 mg/kg/injection, schedule: Q01DX001 (ip), vehicle: Klucel (hydroxypropylcellulose) (HPC)) is reported as 100 % of control.

With `Nc1nc(Cl)cc2nsnc12` the T/C (dose: 100.0 mg/kg/injection, schedule: Q04DX002 (ip), vehicle: saline) was 97 % of control, the T/C (dose: 200.0 mg/kg/injection, schedule: Q04DX002 (ip), vehicle: saline) was 99 % of control and the T/C (dose: 400.0 mg/kg/injection, schedule: Q04DX002 (ip), vehicle: saline) was 95 % of control.

For `O=C(CN1CCNCC1)N1CCCC1`, the T/C [4] was 106 % of control, the T/C [5] was 97 % of control and the T/C [6] was 98 % of control.

`CC1(c2ccc(Cl)cc2)OC(=O)CC(=O)O1` was tested, and the T/C [4] was 99 % of control, the T/C [5] was 100 % of control and the T/C [6] was 100 % of control.

With `C=C1C(=O)OC2/C=C(/C)C3CC(O)C(C)(CC(OC(=O)/C(C)=C/C)C12)O3` (configuration not stated) the T/C (dose: 10.0 mg/kg/injection, schedule: Q01DX009 (ip), vehicle: saline with Tween-80) was 96 % of control and 105 % of control, the T/C (dose: 20.0 mg/kg/injection, schedule: Q01DX009 (ip), vehicle: saline with Tween-80) was 96 % of control and 107 % of control and the T/C (dose: 40.0 mg/kg/injection, schedule: Q01DX009 (ip), vehicle: saline with Tween-80) was 109 % of control and 119 % of control. The T/C (dose: 80.0 mg/kg/injection, schedule: Q01DX009 (ip), vehicle: saline with Tween-80) was 123 % of control and 117 % of control.

With `Oc1ccc2c(ccc3[nH]cnc32)c1` the T/C [10] was 98 % of control, the T/C (dose: 100.0 mg/kg/injection, schedule: Q01DX005 (ip), vehicle: saline) was 101 % of control and the T/C (dose: 200.0 mg/kg/injection, schedule: Q01DX005 (ip), vehicle: saline) was 111 % of control.

In the case of `COc1c(C=O)c2c(c(OC)c1OC)-c1ccc(OC)c(=O)cc1[C@@H](NC(C)=O)CC2`, the T/C (dose: 0.39 mg/kg/injection, schedule: Q01DX009 (ip), vehicle: Klucel (hydroxypropylcellulose) (HPC)) is reported as 151 % of control, the T/C (dose: 0.78 mg/kg/injection, schedule: Q01DX009 (ip), vehicle: Klucel (hydroxypropylcellulose) (HPC)) is reported as 154 % of control and the T/C (dose: 1.56 mg/kg/injection, schedule: Q01DX009 (ip), vehicle: Klucel (hydroxypropylcellulose) (HPC)) is reported as 160 % of control and 175 % of control. The T/C (dose: 3.12 mg/kg/injection, schedule: Q01DX009 (ip), vehicle: Klucel (hydroxypropylcellulose) (HPC)) was 180 % of control and 194 % of control, the T/C (dose: 6.25 mg/kg/injection, schedule: Q01DX009 (ip), vehicle: Klucel (hydroxypropylcellulose) (HPC)) was 205 % of control and the T/C (dose: 12.5 mg/kg/injection, schedule: Q01DX009 (ip), vehicle: Klucel (hydroxypropylcellulose) (HPC)) was 102 % of control.

In the case of `Cc1cc2c(cc1C)NS(=O)(=O)N2`, the T/C [7] is reported as 102 % of control, the T/C [8] is reported as 109 % of control and the T/C [9] is reported as 102 % of control.

For `CCCCCCC(/C=C/c1ccc(Cl)c(Cl)c1)=N\Nc1ccc(Cl)c(Cl)c1`, the T/C (dose: 25.0 mg/kg/injection, schedule: Q01DX009 (ip), vehicle: saline with Tween-80) was 90 % of control, the T/C (dose: 50.0 mg/kg/injection, schedule: Q01DX009 (ip), vehicle: saline with Tween-80) was 88 % of control and 93 % of control and the T/C (dose: 100.0 mg/kg/injection, schedule: Q01DX009 (ip), vehicle: saline with Tween-80) was 94 % of control. For the same compound, the T/C (dose: 200.0 mg/kg/injection, schedule: Q01DX009 (ip), vehicle: saline with Tween-80) was 87 % of control.

`O=S1(=O)CCC(N(/N=C/c2ccco2)c2ccccc2)C1` (configuration not stated) was tested, and the T/C [2] was 95 % of control, the T/C [3] was 101 % of control and the T/C [11] was 101 % of control.

For `OC1(O)/C=C\CCCCC/C=C\1`, the T/C [1] was 100 % of control, the T/C [2] was 101 % of control and the T/C [3] was 99 % of control and 102 % of control. The T/C [11] was 105 % of control.

`Cc1ccc(C(=O)N/N=C/c2cccc(C(N)=S)c2)cc1` was tested, and the T/C [12] was 88 % of control, the T/C [13] was 87 % of control and the T/C [14] was 86 % of control.

With `CNC(=S)NNc1ccc(Cl)nn1` the T/C [12] was 96 % of control, the T/C [13] was 96 % of control and the T/C [14] was 102 % of control.

`CCc1nc(N)nc(N)c1-c1ccc(N(C)Cc2ccccc2)c([N+](=O)[O-])c1` was tested, and the T/C [15] was 116 % of control, the T/C [16] was 120 % of control and the T/C [17] was 185 % of control. The T/C (dose: 480.0 mg/kg/injection, schedule: Q01DX005 (ip), vehicle: Klucel (hydroxypropylcellulose) (HPC)) was 205 % of control.

`O=C1CSc2ccccc2-n2cccc21` was tested, and the T/C [15] was 89 % of control, the T/C [16] was 109 % of control and the T/C [17] was 101 % of control.

`COC1=Cc2c(oc3c(C(C)(C)C)cc(OC)cc23)OC(C(C)(C)C)=C1` was tested, and the T/C (dose: 50.0 mg/kg/injection, schedule: Q01DX009 (ip), vehicle: saline) was 104 % of control, the T/C (dose: 100.0 mg/kg/injection, schedule: Q01DX009 (ip), vehicle: saline) was 100 % of control and the T/C (dose: 200.0 mg/kg/injection, schedule: Q01DX009 (ip), vehicle: saline) was 100 % of control.

In the case of `CN(C)C(=S)S/C=C\C(=O)O`, the T/C (dose: 6.25 mg/kg/injection, schedule: Q04DX003 (ip), vehicle: Klucel (hydroxypropylcellulose) (HPC)) is reported as 97 % of control, the T/C (dose: 12.5 mg/kg/injection, schedule: Q04DX003 (ip), vehicle: Klucel (hydroxypropylcellulose) (HPC)) is reported as 97 % of control and the T/C (dose: 25.0 mg/kg/injection, schedule: Q04DX003 (ip), vehicle: Klucel (hydroxypropylcellulose) (HPC)) is reported as 100 % of control. The T/C (dose: 400.0 mg/kg/injection, schedule: Q04DX003 (ip), vehicle: Klucel (hydroxypropylcellulose) (HPC)) was 88 % of control.

In the case of `N#CC(=Nc1ccccc1)c1cccc(Br)c1`, the T/C (dose: 50.0 mg/kg/injection, schedule: Q01DX009 (ip), vehicle: Klucel (hydroxypropylcellulose) (HPC)) is reported as 109 % of control, the T/C (dose: 100.0 mg/kg/injection, schedule: Q01DX009 (ip), vehicle: Klucel (hydroxypropylcellulose) (HPC)) is reported as 109 % of control and the T/C (dose: 200.0 mg/kg/injection, schedule: Q01DX009 (ip), vehicle: Klucel (hydroxypropylcellulose) (HPC)) is reported as 117 % of control.

For `CCOC(=O)c1cnc(NCCCCNc2ncc(C(=O)OCC)c(=O)[nH]2)[nH]c1=O`, the T/C [4] was 98 % of control, the T/C [5] was 90 % of control and the T/C [6] was 90 % of control.

In the case of `c1cc2nc(-c3ccc4oc(C5=NCCN5)cc4c3)[nH]c2cc1C1=NCCN1`, the T/C (dose: 12.5 mg/kg/injection, schedule: Q01DX005 (ip), vehicle: saline) is reported as 98 % of control, the T/C (dose: 25.0 mg/kg/injection, schedule: Q01DX005 (ip), vehicle: saline) is reported as 113 % of control and the T/C [10] is reported as 113 % of control and 118 % of control.
